Laboratory results published in patent publication US11078262B2, “High viscosity macromolecular compositions for treating ocular conditions” (ALLERGAN, INC., priority 2007, dated 2021).

System: macula edema with central retinal vein occlusion and/or branch retinal vein occlusion
Assay: Treatment of macular edema with intravitreal MAAC composition (ETDRS visual acuity)
Type: in vivo, human
Conditions: patient; 1 mg intravitreal every 4 months; twelve months after the first injection
Protocol: An obese patient with symptoms of diabetes presents with vision loss due to macula edema with central retinal vein occlusion and/or branch retinal vein occlusion. They receive intravitreal injection of 1 mg of a high viscosity MAAC (polymeric hyaluronate based) solution containing COMPOUND D, such as the Example 13 formulation. Equivalent injections are made every 4 months.

Substance: siRNA Z (chain 1 CUGAGUUUAAAAGGCACCCTT; chain 2 TTGACUCAAAUUUUCCGUGGG; chemically modified, pattern not given here; one strand is listed 3' to 5') [COMPOUND D]
- improved best corrected visual acuity from baseline (ETDRS chart): fifteen
